Laboratory results published in patent publication US8975398B2, “NAMPT inhibitors” (AbbVie Inc., priority 2012, dated 2015).

test system: PC3 cells; assay: NAMPT Cell Proliferation Assay (Cell Titer Glo; also performed in the presence of 0.3 mM nicotinamide mononucleotide); assay type: cell-based; settings: 5 days incubation, cell viability by Cell Titer Glo
Protocol: NAMPT Cell Proliferation Assay
PC3 cells were seeded in 96-well black plates (Corning #3904) at 500 cells/well in 90 μl of RPMI media containing 10% heat-inactivated FBS and incubated overnight at 37° C. and 5% CO2 to allow cells to attach to wells. The following day, test compounds were serially diluted in neat DMSO to 1000× final concentrations prior to dilution with RPMI media to 10× and 1% DMSO. Ten μL of the 10× compounds were then transferred to wells containing cells to produce a dose response of 10-fold dilutions from 10 μM to 1×10^−5 μM. Cells were incubated for 5 days at 37° C. and 5% CO2, then cell viability was measured using Cell Titer Glo reagent (Promega #G7571). Percent inhibition values were calculated and fitted to a sigmoidal dose response curves using Assay Explorer software to determine IC50s.

In the case of `Cc1ccccc1C(=O)N1CC(c2ccc(NC(=O)[C@H]3CCN(c4cccnn4)C3)cc2)C1` [Example 791], the IC50 is reported as 7.48 nM.

same assay, conditions: Homo sapiens, PC-3, 120 h, 5 days incubation, cell viability by Cell Titer Glo

Going from `CC1(Cn2cc(-c3ccc(NC(=O)C4CN(c5cccnc5)C4)cc3)cn2)CCNCC1` [Example 877, N-(4-{1-[(4-methylpiperidin-4-yl)methyl]-1H-pyrazol-4-yl}phenyl)-1-(pyridin-3-yl)azetidine-3-carboxamide] to `CC1(Cn2cc(-c3ccc(NC(=O)C4CN(c5cccnn5)C4)cc3)cn2)CCNCC1` [Example 873, N-(4-{1-[(4-methylpiperidin-4-yl)methyl]-1H-pyrazol-4-yl}phenyl)-1-(pyridazin-3-yl)azetidine-3-carboxamide], the IC50 rises from 29.6 nM to 675 nM (23-fold).

First: Cc1ccccc1C(=O)N1CCC(Cc2ccc(NC(=O)C3CN(c4cccnn4)C3)cc2)CC1 [Example 963, N-(4-{[1-(2-methylbenzoyl)piperidin-4-yl]methyl}phenyl)-1-(pyridazin-3-yl)azetidine-3-carboxamide]
Second: O=C(Nc1ccc(CC2CCN(C(=O)c3ccccc3F)CC2)cc1)C1CN(c2cccnn2)C1 [Example 896, N-(4-{[1-(2-fluorobenzoyl)piperidin-4-yl]methyl}phenyl)-1-(pyridazin-3-yl)azetidine-3-carboxamide]
The IC50 of the first is 2-fold higher: 2.14 nM for the first, 1.09 nM for the second.

`C#CCCC(=O)N1CCC(Cc2ccc(NC(=O)C3CN(c4cccnn4)C3)cc2)CC1` [Example 941, N-(4-{[1-(pent-4-ynoyl)piperidin-4-yl]methyl}phenyl)-1-(pyridazin-3-yl)azetidine-3-carboxamide] and `CCCC(=O)N1CCC(Cc2ccc(NC(=O)C3CN(c4cccnn4)C3)cc2)CC1` [Example 959, N-{4-[(1-butanoylpiperidin-4-yl)methyl]phenyl}-1-(pyridazin-3-yl)azetidine-3-carboxamide] are within 1.5-fold of each other in IC50: 2.1 nM for the first, 2.33 nM for the second.

`O=C(N[C@@H]1CCOC1)c1ccc(NC(=O)C2CN(c3cccnn3)C2)cc1` [Example 1022, 1-(pyridazin-3-yl)-N-{4-[(3R)-tetrahydrofuran-3-ylcarbamoyl]phenyl}azetidine-3-carboxamide] and `O=C(N[C@H]1CCOC1)c1ccc(NC(=O)C2CN(c3cccnn3)C2)cc1` [Example 1020, 1-(pyridazin-3-yl)-N-{4-[(3S)-tetrahydrofuran-3-ylcarbamoyl]phenyl}azetidine-3-carboxamide] are within 1.5-fold of each other in IC50: 8160 nM for the first, 7270 nM for the second.

Compared with `Cn1nc(C(F)(F)F)cc1-c1ccc(NC(=O)C2CN(c3cccnn3)C2)cc1` [Example 874, N-{4-[1-methyl-3-(trifluoromethyl)-1H-pyrazol-5-yl]phenyl}-1-(pyridazin-3-yl)azetidine-3-carboxamide], `Cn1nc(C(=O)O)cc1-c1ccc(NC(=O)C2CN(c3cccnn3)C2)cc1` [Example 911, 1-methyl-5-[4-({[1-(pyridazin-3-yl)azetidin-3-yl]carbonyl}amino)phenyl]-1H-pyrazole-3-carboxylic acid] is higher in IC50: 71.1 nM for the first, over 10000 nM for the second.

Going from `O=C(Nc1ccc(C2(O)CCN(C(=O)c3ccccc3F)CC2)cc1)C1CN(c2cccnn2)C1` [Example 889, N-{4-[1-(2-fluorobenzoyl)-4-hydroxypiperidin-4-yl]phenyl}-1-(pyridazin-3-yl)azetidine-3-carboxamide] to `Cc1nnccc1N1CC(C(=O)Nc2ccc(C3CCN(C(=O)c4ccccc4F)CC3)cc2)C1` [Example 909, N-{4-[1-(2-fluorobenzoyl)piperidin-4-yl]phenyl}-1-(3-methylpyridazin-4-yl)azetidine-3-carboxamide], the IC50 rises from 2.85 nM to 67 nM (24-fold).

Going from `CC(C)(C)OC(=O)N1CCC(n2cc(NC(=O)C3CN(c4cccnn4)C3)cn2)CC1` [Example 925, tert-butyl 4-[4-({[1-(pyridazin-3-yl)azetidin-3-yl]carbonyl}amino)-1H-pyrazol-1-yl]piperidine-1-carboxylate] to `CC(C)(C)CC(=O)N1CCC(c2ccc(NC(=O)C3CN(c4cccnn4)C3)cn2)CC1` [Example 920, N-{6-[1-(3,3-dimethylbutanoyl)piperidin-4-yl]pyridin-3-yl}-1-(pyridazin-3-yl)azetidine-3-carboxamide], the IC50 falls from 10.1 nM to 5.43 nM (1.9-fold). The second is the more potent here.

`COCCOCC(=O)N1CCC(Cc2ccc(NC(=O)C3CN(c4cccnn4)C3)cc2)CC1` [Example 945, N-[4-({1-[(2-methoxyethoxy)acetyl]piperidin-4-yl}methyl)phenyl]-1-(pyridazin-3-yl)azetidine-3-carboxamide] and `CCCCC(=O)N1CCC(Cc2ccc(NC(=O)C3CN(c4cccnn4)C3)cc2)CC1` [Example 961, N-{4-[(1-pentanoylpiperidin-4-yl)methyl]phenyl}-1-(pyridazin-3-yl)azetidine-3-carboxamide] are within 1.5-fold of each other in IC50: 4.51 nM for the first, 5.57 nM for the second.

First: CC(=O)N1CCC(Cc2ccc(NC(=O)C3CN(c4cccnn4)C3)cc2)CC1 [Example 902, N-{4-[(1-acetylpiperidin-4-yl)methyl]phenyl}-1-(pyridazin-3-yl)azetidine-3-carboxamide]
Second: CC1CC1C(=O)N1CCC(Cc2ccc(NC(=O)C3CN(c4cccnn4)C3)cc2)CC1 (centres unmarked) [Example 931, N-[4-({1-[(2-methylcyclopropyl)carbonyl]piperidin-4-yl}methyl)phenyl]-1-(pyridazin-3-yl)azetidine-3-carboxamide]
The IC50 of the first is 2-fold higher: 6.45 nM for the first, 3.17 nM for the second. The second is the more potent here.

First: O=C(Nc1ccc(CC2CCN(C(=O)CC3CCCC3)CC2)cc1)C1CN(c2cccnn2)C1 [Example 962, N-(4-{[1-(cyclopentylacetyl)piperidin-4-yl]methyl}phenyl)-1-(pyridazin-3-yl)azetidine-3-carboxamide]
Second: O=C(Nc1ccc(CC2CCN(C(=O)C3CCCO3)CC2)cc1)C1CN(c2cccnn2)C1 (centres unmarked) [Example 944, 1-(pyridazin-3-yl)-N-(4-{[1-(tetrahydrofuran-2-ylcarbonyl)piperidin-4-yl]methyl}phenyl)azetidine-3-carboxamide]
The IC50 of the first is 3-fold lower: 2.4 nM for the first, 7.14 nM for the second. The first is the more potent here.

Compared with `O=C(Nc1ccc(CC2CCN(C(=O)CCC(F)(F)F)CC2)cc1)C1CN(c2cccnn2)C1` [Example 900, 1-(pyridazin-3-yl)-N-(4-{[1-(4,4,4-trifluorobutanoyl)piperidin-4-yl]methyl}phenyl)azetidine-3-carboxamide], `O=C(Nc1ccc(CC2CCN(C(=O)CC(F)(F)F)CC2)cc1)C1CN(c2cccnn2)C1` [Example 968, 1-(pyridazin-3-yl)-N-(4-{[1-(3,3,3-trifluoropropanoyl)piperidin-4-yl]methyl}phenyl)azetidine-3-carboxamide] is 1.7-fold higher in IC50: 2.24 nM for the first, 3.7 nM for the second.

First: O=C(Nc1ccc(C2CCN(C(=O)c3ccccc3)CC2)c(F)c1)C1CN(c2cccnn2)C1 [Example 884, N-[4-(1-benzoylpiperidin-4-yl)-3-fluorophenyl]-1-(pyridazin-3-yl)azetidine-3-carboxamide]
Second: Nc1ncccc1C(=O)N1CCC(c2ccc(NC(=O)C3CN(c4cccnn4)C3)cc2)CC1 [Example 910, N-(4-{1-[(2-aminopyridin-3-yl)carbonyl]piperidin-4-yl}phenyl)-1-(pyridazin-3-yl)azetidine-3-carboxamide]
The IC50 of the first is 2.4-fold lower: 2.75 nM for the first, 6.51 nM for the second. The first is the more potent here.

First: CCOC(=O)c1cc(-c2ccc(NC(=O)C3CN(c4cccnn4)C3)cc2)n(C)n1 [Example 912, ethyl 1-methyl-5-[4-({[1-(pyridazin-3-yl)azetidin-3-yl]carbonyl}amino)phenyl]-1H-pyrazole-3-carboxylate]
Second: O=C(NCC1COC1)c1ccc(NC(=O)C2CN(c3cccnn3)C2)cc1 [Example 990, N-{4-[(oxetan-3-ylmethyl)carbamoyl]phenyl}-1-(pyridazin-3-yl)azetidine-3-carboxamide]
The IC50 of the first is 110-fold lower: 64.2 nM for the first, 6810 nM for the second.

`O=C(NC[C@H]1CCCO1)c1ccc(NC(=O)C2CN(c3cccnn3)C2)cc1` [Example 996, 1-(pyridazin-3-yl)-N-(4-{[(2R)-tetrahydrofuran-2-ylmethyl]carbamoyl}phenyl)azetidine-3-carboxamide] and `O=C(NC[C@@H]1CCCO1)c1ccc(NC(=O)C2CN(c3cccnn3)C2)cc1` [Example 1000, 1-(pyridazin-3-yl)-N-(4-{[(2S)-tetrahydrofuran-2-ylmethyl]carbamoyl}phenyl)azetidine-3-carboxamide] are within 1.5-fold of each other in IC50: 104 nM for the first, 77 nM for the second.

First: O=C(NCC1CCOCC1)c1ccc(NC(=O)C2CN(c3cccnn3)C2)cc1 [Example 1001, 1-(pyridazin-3-yl)-N-{4-[(tetrahydro-2H-pyran-4-ylmethyl)carbamoyl]phenyl}azetidine-3-carboxamide]
Second: O=C(NC1CCC1)c1ccc(NC(=O)C2CN(c3cccnn3)C2)cc1 [Example 992, N-[4-(cyclobutylcarbamoyl)phenyl]-1-(pyridazin-3-yl)azetidine-3-carboxamide]
The IC50 of the first is 28-fold lower: 53.2 nM for the first, 1510 nM for the second.

`Cc1ccc(N2CC(C(=O)Nc3ccc(O[C@@H]4CCN(C(=O)c5ccc(F)cc5F)C4)cc3)C2)nn1` [Example 917, N-(4-{[(3R)-1-(2,4-difluorobenzoyl)pyrrolidin-3-yl]oxy}phenyl)-1-(6-methylpyridazin-3-yl)azetidine-3-carboxamide] and `O=C(Nc1ccc(F)cc1)c1ccc(NC(=O)C2CN(c3cccnn3)C2)cc1` [Example 1009, N-{4-[(4-fluorophenyl)carbamoyl]phenyl}-1-(pyridazin-3-yl)azetidine-3-carboxamide] are within 1.5-fold of each other in IC50: 101 nM for the first, 81.8 nM for the second.

`O=C(Nc1ccc(CC2CCN(C(=O)c3cccs3)CC2)cc1)C1CN(c2cccnn2)C1` [Example 947, 1-(pyridazin-3-yl)-N-(4-{[1-(thiophen-2-ylcarbonyl)piperidin-4-yl]methyl}phenyl)azetidine-3-carboxamide] and `CSCCC(=O)N1CCC(Cc2ccc(NC(=O)C3CN(c4cccnn4)C3)cc2)CC1` [Example 936, N-[4-({1-[3-(methylsulfanyl)propanoyl]piperidin-4-yl}methyl)phenyl]-1-(pyridazin-3-yl)azetidine-3-carboxamide] are within 1.5-fold of each other in IC50: 2.56 nM for the first, 2.18 nM for the second.
